Reference: US20090305995A1, “AGONISTS AND ANTAGONISTS OF THE SOMATOSTATIN RECEPTOR” (Novartis AG, priority 2004, published 2009)
Converted amounts (≈) assume the structure as drawn. Where two headings read alike, the source gives them in different places.

How the values were obtained:
Assay type in all cases: physicochemical
[1] = HT-logP o/w, high throughput assay based on artificial liquid membrane permeability
Description: To be absorbed and transported by passive diffusion, drugs must be sufficiently lipophilic to penetrate the lipid cores of membranes, but not too lipophilic that they get retained and accumulated there. The lipophilictity of a compound is expressed by the octanol/water partition coefficient or distribution coefficient. A first approximation of substance polarity can either be given by computer assisted calculations giving Clog P values or by measurement of the partition coefficients in high-throughput assays (HT-log P o/w) (Faller et al., 2004; Wohnsland et al., 2001).
Octanol/water partition coefficients are measured in a high throughput assay based on artificial liquid membrane permeability. […] Still many approaches to calculate log P values are limited due to a lack of parameterization of certain fragments and fail with increasing molecular weight which implicates higher structural complexity. Similar problems and failures are observed in chromatographic determinations of log P: Peptides might undergo structural changes driven by interactions with the stationary phase. Decisive interactions between the stationary phase and the defolded analytes are therefore also based on the linear peptide sequence. For this reason measured HT-log P o/w values based on chromatographic assays employing stationary phases may lead to erroneous results.

[2] = high throughput solubility (HT-Solubility); settings: for water solubility (in words): see FIG. 10
[3] = high throughput permeability (HT-Permeability, log Pe); settings: PAMPA, Pe in cm/s
[4] = octanol/water, read-out: HT LogP ohw
[5] = pH 1, pH 1.0, read-out: HT-Solubility pH 1.0
[6] = pH 6.8, pH 6.8, read-out: HT-Solubility pH 6.8
[7] = pH 4, pH 4.0, read-out: HT-Permeability logPe pH 4.0 (converted)
[8] = pH 6.8, pH 6.8, read-out: HT-Permeability logPe pH 6.8 (converted)
[9] = pH 8, pH 8.0, read-out: HT-Permeability logPe pH 8.0 (converted)
[10] = octanol/water; read-out: HT LogP ohw

Row | logP [1, 4] | solubility [2, 5] [µg/mL] | solubility [2, 6] [µg/mL] | Papp [3, 7] [×10⁻⁶ cm/s] | Papp [3, 8] [×10⁻⁶ cm/s] | Papp [3, 9] [×10⁻⁶ cm/s] | water solubility (in words) [2] | HT LogP ohw ([1]; octanol/water) | HT-Solubility pH 1.0 [2] [g 1-1] | HT-Solubility pH 6.8 [2] [g 1-1] | logP [1, 10] | SMILES
1 | 3.3 | 7.3 (≈ 9.97 µM) | 1.5 (≈ 2.05 µM) |  |  |  |  |  |  |  |  | C[C@@H](O)[C@@H](CC(N)=O)NC(=O)C[C@H](CCCCN)NC(=O)[C@@H](Cc1c[nH]c2ccccc12)NC(=O)C[C@H](Cc1ccccc1)NC(=O)C1CCCCC1 [Compound 26, Cyclohexanoyl-(S)-β^3-HPhe-(R)-Trp-(S)-β^3-HLys-(R), (R)—HThr-NH2]
2 | 2.7 | 36.8 (≈ 49.9 µM) | 7.4 (≈ 10 µM) | 0.1 |  |  |  |  |  |  |  | C[C@H]1OC(=O)C[C@H]1NC(=O)C[C@H](CCCCN)NC(=O)[C@@H](Cc1c[nH]c2ccccc12)NC(=O)C[C@H](Cc1ccccc1)NC(=O)CCc1ccccc1 [Compound 10, Dihydrocinnemoyl-(S)-β^3-HPhe-(R)-Trp-(S)-β^3-HLys-(R)-4-amino-(R)-5-methyl-dihydro-furan-2-one]
3 | 3 | 127 (≈ 200 µM) | 127 (≈ 200 µM) | 3.98 | 1.58 | 1 | highest solubility values |  |  |  |  | CCCCCN(C)C(=O)C[C@H](CCCCN)NC(=O)[C@@H](Cc1c[nH]c2ccccc12)NC(=O)C[C@H](Cc1ccccc1)NC(C)=O [Compound 47, Ace-(S)-β^3-HPhe-(R)-Trp-(S)-β^3-HLys-methyl-pentyl-amide]
4 | 2.8 | 153 (≈ 200 µM) | 76.7 (≈ 100 µM) | 3.16 |  | 10 | good water solubility |  |  |  |  | C[C@H]1OC(=O)C[C@H]1NC(=O)C[C@H](CCCCN)NC(=O)[C@@H](Cc1c[nH]c2ccccc12)NC(=O)C[C@H](Cc1ccccc1)NC(=O)C12CC3CC(CC(C3)C1)C2 [Compound 13, Adamantoyl-(S)-β^3-HPhe-(R)-Trp-(S)-β^3-HLys-(R)-4-amino-(R)-5-methyl-dihydro-furan-2-one]
5 | 2.8 | 126 (≈ 200 µM) | 63.1 (≈ 100 µM) | 1 |  |  |  |  |  |  |  | CCC(=O)N[C@H](CC(=O)N[C@H](Cc1c[nH]c2ccccc12)C(=O)N[C@@H](CCCCN)CC(=O)NC1CCCC1)Cc1ccccc1 [Compound 57, Propionyl-(S)-β^3-HPhe-(R)-Trp-(S)-β^3-HLys-cyclopentyl-amide]
6 | 3.7 | 64.7 (≈ 100 µM) | 12.9 (≈ 19.9 µM) | 2.51 | 0.1 |  |  |  |  |  |  | CCCCCNC(=O)C[C@H](CCCCN)NC(=O)[C@@H](Cc1c[nH]c2ccccc12)NC(=O)C[C@H](Cc1ccccc1)NC(=O)CCC [Compound 55, Butyroyl-(S)-β^3-HPhe-(R)-Trp-(S)-β^3-HLys-pentyl-amide]
7 |  |  |  |  |  |  | medium to good | 3.2 | 0.1236 | 0.0619 |  | CCCCCNC(=O)C[C@H](CCCCN)NC(=O)[C@@H](Cc1c[nH]c2ccccc12)NC(=O)C[C@H](Cc1ccccc1)NC(C)=O [Compound 45, Ace-(S)-β^3-HPhe-(R)-Trp-(S)-β^3-HLys-pentyl-amide]
8 | 3.6 | 132 (≈ 200 µM) | 132 (≈ 200 µM) | 2.51 | 3.98 | 1 | highest solubility values |  |  |  |  | CCCCCN(C)C(=O)C[C@H](CCCCN)NC(=O)[C@@H](Cc1c[nH]c2ccccc12)NC(=O)C[C@H](Cc1ccccc1)NC(=O)CCC [Compound 41, Butyroyl-(S)-β^3-HPhe-(R)-Trp-(S)-β^3-HLys-methyl-pentyl-amide]
9 | 3 | 127 (≈ 200 µM) | 126 (≈ 200 µM) | 1 | 2 | 1.26 | highest solubility values |  |  |  |  | CCCCN(C)C(=O)C[C@H](CCCCN)NC(=O)[C@@H](Cc1c[nH]c2ccccc12)NC(=O)C[C@H](Cc1ccccc1)NC(=O)CC [Compound 43, Propionyl-(S)-β^3-HPhe-(R)-Trp-(S)-β^3-HLys-methyl-butyl-amide]
10 |  | 124 (≈ 200 µM) | 124 (≈ 200 µM) | 1.58 |  | 2 |  |  |  |  |  | C[C@@H](O)[C@@H](CC(N)=O)NC(=O)C[C@H](CCCCN)NC(=O)[C@@H](Cc1c[nH]c2ccccc12)NC(=O)C[C@@H](N)Cc1ccccc1 [Compound 36, (S)-β^3-HPhe-(R)-Trp-(S)-β^3-HLys-(R), (R)—HThr-NH2]
11 |  | 127 (≈ 200 µM) |  |  |  |  | medium to good |  |  |  | 3.4 | CCCCCNC(=O)C[C@H](CCCCN)NC(=O)[C@@H](Cc1c[nH]c2ccccc12)NC(=O)C[C@H](Cc1ccccc1)NC(=O)CC [Compound 50]
12 |  | 132 (≈ 200 µM) | 132 (≈ 200 µM) |  |  |  | highest solubility values |  |  |  | 3.9 | CCCCCN(C)C(=O)C[C@H](CCCCN)NC(=O)[C@@H](Cc1c[nH]c2ccccc12)N(C)C(=O)C[C@H](Cc1ccccc1)NC(=O)CC [Compound 63, Propionyl-(S)-β^3-HPhe-(R)—N-Me-Trp-(S)-β^3-HLys-methyl-pentyl-amide]
13 |  |  |  |  |  |  |  | 3.3 | 0.121 | 0.121 |  | C[C@H]1OC(=O)C[C@H]1NC(=O)C[C@H](CCCCN)NC(=O)[C@@H](Cc1c[nH]c2ccccc12)NC(=O)C[C@@H](N)Cc1ccccc1 [Compound 29]
14 |  | 110 (≈ 200 µM) | 110 (≈ 200 µM) | 1 | 5.01 |  |  |  |  |  |  | CC(=O)N[C@H](CC(=O)N[C@H](Cc1c[nH]c2ccccc12)C(=O)N[C@@H](CCCCN)CC(N)=O)Cc1ccccc1 [Compound 58, Ace-(S)-β^3-HPhe-(R)-Trp-(S)-β^3-HLys-NH2]
15 |  | 112 (≈ 200 µM) | 112 (≈ 200 µM) | 3.16 | 7.94 | 1.26 |  |  |  |  |  | CCC(=O)N[C@H](CC(=O)N[C@H](Cc1c[nH]c2ccccc12)C(=O)N[C@@H](CCCCN)CC(N)=O)Cc1ccccc1 [Compound 60, Propionyl-(S)-β^3-HPhe-(R)-Trp-(S)-β^3-HLys-NH2]
16 |  | 13.3 (≈ 20 µM) | 13.3 (≈ 20 µM) | 0.1 |  |  |  |  |  |  |  | CC(=O)N[C@H](CC(=O)N[C@H](Cc1c[nH]c2ccccc12)C(=O)N[C@@H](CCCCN)CC(=O)N[C@H](CC(N)=O)[C@@H](C)O)Cc1ccccc1 [Compound 2, Ac—(S)-β^3-HPhe-(R)-Trp-(S)-β^3-HLys-(R), (R)—HThr-NH2]
17 |  | 129 (≈ 200 µM) | 129 (≈ 200 µM) |  |  |  |  |  |  |  |  | CC(=O)N[C@H](CC(=O)N[C@H](Cc1c[nH]c2ccccc12)C(=O)N[C@@H](CCCCN)CC(=O)N[C@@H]1CC(=O)O[C@@H]1C)Cc1ccccc1 [Compound 7, Ac—(S)-β^3-HPhe-(R)-Trp-(S)-β^3-HLys-(R)-4-amino-(R)-5-methyl-dihydro-furan-2-one]

Row | SMILES | logP [1, 4] | solubility [2, 5] [µg/mL] | solubility [2, 6] [µg/mL] | Papp [3, 7] [×10⁻⁶ cm/s] | Papp [3, 8] [×10⁻⁶ cm/s] | Papp [3, 9] [×10⁻⁶ cm/s] | water solubility (in words) [2] | HT LogP ohw ([1]; octanol/water) | HT-Solubility pH 1.0 [2] [g 1-1] | HT-Solubility pH 6.8 [2] [g 1-1] | logP [1, 10]
18 | CCCCCCN(C)C(=O)C[C@H](CCCCN)NC(=O)[C@@H](Cc1c[nH]c2ccccc12)N(Cc1ccccc1)C(=O)C[C@H](Cc1ccccc1)NC(=O)CC [Compound 69, Propionyl-(S)-β^3-HPhe-(R)—N-Benzyl-Trp-(S)-β^3-HLys-methyl-hexyl-amide] |  |  |  |  |  |  | does not allow for good water solubilities | 5.1 | 0.0751 | 0.015 | 
19 | CC(C)[C@@H](CC(=O)N(C)CCc1ccccc1)NC(=O)C[C@H](CCCCN)NC(=O)[C@@H](Cc1c[nH]c2ccccc12)NC(=O)C[C@H](Cc1ccccc1)NC(=O)C12CC3CC(CC(C3)C1)C2 [Compound 27, Adamantoyl-(S)-β^3-HPhe-(R)-Trp-(S)-β^3-HLys-(R)-β^3-Leu-methyl-phenethyl-amide] |  | 45 (≈ 50 µM) | 9 (≈ 10 µM) |  |  |  |  |  |  |  | 
